This experiment deals with bacterial strain LF82 binding to the glycoprotein BSA-(Mannose)3. The experiment is described as follows: Bacterial Binding Assay (BBA). The settings on record: read-out: Bacterial Binding Assay IC50. The experiment is classed as cell-based, Escherichia coli. An excerpt:
The purpose of the Bacterial Binding Assay (BBA) is to determine the inhibition activity of selective FimH antagonists on the bacterial strain LF82 binding to the glycoprotein BSA-(Mannose)3.
Below is a list of the Materials used to run the BBA are described below. • 1. LB broth: Supplier: Gibco, #10855 • 2. D-PBS: Supplier: Wisent, #311-425-CL • 3. LB agar plates • 4. 96-well black plate (high binding): Supplier: Costar, #3925 • 5. TopSeal™-A adhesive sealing films; Supplier PerkinElmer, #6005185 • 6. Carbonate-bicarbonate buffer pH 9.6 tablets, Supplier: Medicago, #09-8922-24 • 7. Water, Supplier: Gibco, #15230-162 • 8. Bovine serum albumin (BSA): Supplier: Sigma, #A-7888 • 9. (Man)-3-BSA (α1-3, α1-6 Mannotriose-BSA, 1 mg), V-Labs, #NGP1336, lot#HGDX37-169-1 • 10. Tween 20: Supplier: Sigma, #P9416 • 11. Bright-Glo Luciferase Assay System: Supplier: Promega, #E2610 • 12. LF82/Luciferase strain: Invasive ability of an Escherichia coli strain isolated from the ileal mucosa of a patient with Crohn's disease. Boudeau J, Glasser A L, Masseret E, Joly B, Darfeuille-Michaud A, Infect Immun. 1999, 67(9), 4499-509
Solutions and buffers used to run the BBA are described below. • 1. 0.04M carbonate-bicarbonate buffer (coating buffer) • 2. […] 1 mg of (Man)-3-BSA in 25 mL of water. • 3. 4000 ng/mL BSA • 4. 40 ng/mL BSA • 5. 1 μg/mL BSA-(Man)3: 150 μL of 40 ng/mL BSA-(Man)3+5.85 mL of 40 ng/mL BSA • 6. 0.5 μg/mL BSA-(Man)3 in 0.02M carbonate-bicarbonate buffer. • 7. 20 ng/mL BSA in 0.02M carbonate-bicarbonate buffer • 8. Blocking buffer (2% BSA/DPBS): 1 g of BSA in 50 mL D-PBS • 9. 2× binding buffer (0.2% BSA/D-PBS): 5 mL of blocking buffer+45 mL D-PBS. • 10. Washing buffer (D-PBS/0.01% Tween 20): 10 μL of Tween 20 in 100 mL D-PBS. • 11. 1× Bright-Glo Luciferase substrate:Dilute 1:1 the Bright-Glo Luciferase Assay System with D-PBS The experimental protocol to run the BBA is described below.
Overnight culture of LF82/Luciferase strain: Into two Falcon 50 mL tubes, add 20 mL of LB+20 μL of 50 mg/mL Kanamycin and inoculate with a loop from glycerol stock of the LF82/Luciferase strain. Incubate overnight at 37° C. with no shaking.
Glycoprotein coating of 96-well plates: Add 100 μL/well of 0.5-2 μg/mL BSA-(Man)3. 20 μg/mL BSA is used as the control background. Seal plate using an adhesive sealing film and incubate overnight at room temperature. Wash the 96-well plate three times with 150 μL/well of D-PBS, add 170 μL/well of blocking solution and incubate 45 min (minimum) at room temperature.
Preparation of bacterial suspension: Mix the two cultures tubes (40 mL) and perform a 1:10 dilution in LB (900 μl LB+100 μl culture. Measure optical density (OD) of the bacterial cultures. OD1 ˜5×10^8 cells/mL. Centrifuge LF82 culture for 20 min at 3500 rpm at room temperature. Re-suspend bacterial pellet in D-PBS and centrifuge again for 20 min at 3500 rpm. Re-suspend bacterial pellet in D-PBS to obtain a bacterial concentration of 2×10^9 bacteria/mL. Dilute 1/10 in D-PBS to obtain a final bacterial concentration of 2×10^8 bacteria/mL (=107 bacteria/50 μL). Perform 1/10 serial dilutions in LB of each bacterial suspension, plate 10 μL of dilutions on LB agar plates (final dilutions of 10^−7) and incubate overnight at 37° C. and count CFUs to determine the actual bacteria density in the assay.
Bacterial binding assay: Add 147 μL 2× binding buffer to compound plate (containing 3 μL of compound). After blocking step is performed (at least 45 min), wash plates three times with 200 μL/well of D-PBS. With a 100 μL multichannel manual pipettor, add 50 μL/well of compound diluted in 2× binding buffer. With a 100 μL multichannel manual pipettor, add 50 μL/well of bacterial suspension. Agitate at slow speed for 1 min and incubate 40-75 min at room temperature. Wash 5 times with 150 μL/well of washing buffer and then once with D-PBS. Add 100 μL/well of 1× Bright-Glo Luciferase substrate. […]
A word on the IC50: it is the midpoint of a concentration-inhibition curve. `CNC(=O)c1cccc(-c2ccc(O[C@H]3O[C@H](CO)[C@@H](O)[C@H](O)[C@]3(C)O)c(Cl)c2)c1` [Example 15, 3-[3-chloro-4-[(2R,3S,4S,5S,6R)-3,4,5-trihydroxy-6-(hydroxymethyl)-3-methyl-tetrahydropyran-2-yl]oxy-phenyl]-N-methyl-benzamide]: the half-maximal inhibitory concentration (IC50) is 13 ± 2 nM. In the case of `CNC(=O)c1cccc(-c2ccc(O[C@H]3O[C@H](CO)[C@@H](O)[C@H](O)[C@]3(C)O)c(F)c2)c1` [Example 16, 3-[3-fluoro-4-[(2R,3S,4S,5S,6R)-3,4,5-trihydroxy-6-(hydroxymethyl)-3-methyl-tetrahydropyran-2-yl]oxy-phenyl]-N-methyl-benzamide], the half-maximal inhibitory concentration (IC50) amounted to 67 ± 18 nM.

Take `CNC(=O)c1cccc(-c2ccc(O[C@H]3O[C@H](CO)[C@@H](O)[C@H](O)[C@]3(C)O)c(OC)c2)c1` [Example 17, 3-[3-methoxy-4-[(2R,3S,4S,5S,6R)-3,4,5-trihydroxy-6-(hydroxymethyl)-3-methyl-tetrahydropyran-2-yl]oxy-phenyl]-N-methyl-benzamide]: the IC50 stood at 27 ± 8 nM. As for `Cc1cc(-c2cccc([N+](=O)[O-])c2)ccc1O[C@H]1O[C@H](CO)[C@@H](O)[C@H](O)[C@]1(C)O` [Example 18, (2R,3S,4S,5S,6R)-6-(hydroxymethyl)-3-methyl-2-[2-methyl-4-(3-nitrophenyl)phenoxy]tetrahydropyran-3,4,5-triol], the figure is 13 ± 3 nM; as for `C[C@@]1(O)[C@@H](Oc2ccc(N3CCc4cc([N+](=O)[O-])ccc43)cc2Cl)O[C@H](CO)[C@@H](O)[C@@H]1O` [Example 19, (2R,3S,4S,5S,6R)-2-(2-chloro-4-(5-nitroindolin-1-yl)phenoxy)-6-(hydroxymethyl)-3-methyltetrahydro-2H-pyran-3,4,5-triol], 13 ± 6 nM. As for `C[C@@]1(O)[C@@H](Oc2ccc(-c3ccc(O[C@H]4O[C@H](CO)[C@@H](O)[C@H](O)[C@]4(C)O)cc3)cc2)O[C@H](CO)[C@@H](O)[C@@H]1O` [Example 106, (2R,3S,4S,5S,6R)-6-(hydroxymethyl)-3-methyl-2-[4-[4-[(2R,3S,4S,5S,6R)-3,4,5-trihydroxy-6-(hydroxymethyl)-3-methyl-tetrahydropyran-2-yl]oxyphenyl]phenoxy]tetrahydropyran-3,4,5-triol], the figure is 435 ± 115 nM.

On to `C[C@@]1(O)[C@@H](Oc2ccc(-c3ccc(O[C@H]4O[C@H](CO)[C@@H](O)[C@H](O)[C@]4(C)O)c(Cl)c3)cc2Cl)O[C@H](CO)[C@@H](O)[C@@H]1O` [Example 107, (2R,3S,4S,5S,6R)-2-[2-chloro-4-[3-chloro-4-[(2R,3S,4S,5S,6R)-3,4,5-trihydroxy-6-(hydroxymethyl)-3-methyl-tetrahydropyran-2-yl]oxy-phenyl]phenoxy]-6-(hydroxymethyl)-3-methyl-tetrahydropyran-3,4,5-triol], for which the IC50 is 5 ± 1 nM. As for `C[C@@]1(O)[C@@H](Oc2ccc3ccc(O[C@H]4O[C@H](CO)[C@@H](O)[C@H](O)[C@]4(C)O)cc3c2)O[C@H](CO)[C@@H](O)[C@@H]1O` [Example 108, (2R,3S,4S,5S,6R)-6-(hydroxymethyl)-3-methyl-2-[[7-[(2R,3S,4S,5S,6R)-3,4,5-trihydroxy-6-(hydroxymethyl)-3-methyl-tetrahydropyran-2-yl]oxy-2-naphthyl]oxy]tetrahydropyran-3,4,5-triol], the figure is 158 ± 61 nM. As for `COc1cc(-c2ccc(O[C@H]3O[C@H](CO)[C@@H](O)[C@H](O)[C@]3(C)O)c(OC)c2)ccc1O[C@H]1O[C@H](CO)[C@@H](O)[C@H](O)[C@]1(C)O` [Example 109, (2R,3S,4S,5S,6R)-6-(hydroxymethyl)-2-[2-methoxy-4-[3-methoxy-4-[(2R,3S,4S,5S,6R)-3,4,5-trihydroxy-6-(hydroxymethyl)-3-methyl-tetrahydropyran-2-yl]oxy-phenyl]phenoxy]-3-methyl-tetrahydropyran-3,4,5-triol], the figure is 8 ± 4 nM; as for `CCc1cc(-c2ccc(O[C@H]3O[C@H](CO)[C@@H](O)[C@H](O)[C@]3(C)O)c(CC)c2)ccc1O[C@H]1O[C@H](CO)[C@@H](O)[C@H](O)[C@]1(C)O` [Example 110, (2R,3S,4S,5S,6R)-2-[2-ethyl-4-[3-ethyl-4-[(2R,3S,4S,5S,6R)-3,4,5-trihydroxy-6-(hydroxymethyl)-3-methyl-tetrahydropyran-2-yl]oxy-phenyl]phenoxy]-6-(hydroxymethyl)-3-methyl-tetrahydropyran-3,4,5-triol], 3 ± 1 nM; as for `C[C@@]1(O)[C@@H](Oc2ccc(-c3ccc(O[C@H]4O[C@H](CO)[C@@H](O)[C@H](O)[C@]4(C)O)c(C#N)c3)cc2C#N)O[C@H](CO)[C@@H](O)[C@@H]1O` [Example 111, 5-[3-cyano-4-[(2R,3S,4S,5S,6R)-3,4,5-trihydroxy-6-(hydroxymethyl)-3-methyl-tetrahydropyran-2-yl]oxy-phenyl]-2-[(2R,3S,4S,5S,6R)-3,4,5-trihydroxy-6-(hydroxymethyl)-3-methyl-tetrahydropyran-2-yl]oxy-benzonitrile], 6 ± 2 nM.

Turning to `C[C@@]1(O)[C@@H](Oc2ccc(-c3ccc(O[C@H]4O[C@H](CO)[C@@H](O)[C@H](O)[C@]4(C)O)c(F)c3)cc2F)O[C@H](CO)[C@@H](O)[C@@H]1O` [Example 112, (2R,3S,4S,5S,6R)-2-[2-fluoro-4-[3-fluoro-4-[(2R,3S,4S,5S,6R)-3,4,5-trihydroxy-6-(hydroxymethyl)-3-methyl-tetrahydropyran-2-yl]oxy-phenyl]phenoxy]-6-(hydroxymethyl)-3-methyl-tetrahydropyran-3,4,5-triol], the concentration for half-maximal inhibition (IC50) is 68 ± 11 nM.

Take `Cc1ccc(-c2ccc(C)c(O[C@H]3O[C@H](CO)[C@@H](O)[C@H](O)[C@]3(C)O)c2)cc1O[C@H]1O[C@H](CO)[C@@H](O)[C@H](O)[C@]1(C)O` [Example 113, (2R,3S,4S,5S,6R)-6-(hydroxymethyl)-3-methyl-2-[2-methyl-5-[4-methyl-3-[(2R,3S,4S,5S,6R)-3,4,5-trihydroxy-6-(hydroxymethyl)-3-methyl-tetrahydropyran-2-yl]oxy-phenyl]phenoxy]tetrahydropyran-3,4,5-triol]: the half-inhibitory concentration (IC50) was determined as 15 ± 11 nM.

Turning to `C[C@@]1(O)[C@@H](Oc2ccc(-c3ccc(O[C@H]4O[C@H](CO)[C@@H](O)[C@H](O)[C@]4(C)O)c(OC(F)(F)F)c3)cc2OC(F)(F)F)O[C@H](CO)[C@@H](O)[C@@H]1O` [Example 114, (2R,3S,4S,5S,6R)-6-(hydroxymethyl)-3-methyl-2-[2-(trifluoromethoxy)-4-[3-(trifluoromethoxy)-4-[(2R,3S,4S,5S,6R)-3,4,5-trihydroxy-6-(hydroxymethyl)-3-methyl-tetrahydropyran-2-yl]oxy-phenyl]phenoxy]tetrahydropyran-3,4,5-triol], the IC50 was determined as 1 ± 1 nM.
